Experiments:
NTPDase1 = molecular target: T1, NTPDase1 (Homo sapiens, UniProt P49961); test: Inhibition of ATPase activity of human NTPDase1; type: biochemical; details: analogue at 100 μM; ATP 100 μM as substrate
T1 sequence (P49961 1-510): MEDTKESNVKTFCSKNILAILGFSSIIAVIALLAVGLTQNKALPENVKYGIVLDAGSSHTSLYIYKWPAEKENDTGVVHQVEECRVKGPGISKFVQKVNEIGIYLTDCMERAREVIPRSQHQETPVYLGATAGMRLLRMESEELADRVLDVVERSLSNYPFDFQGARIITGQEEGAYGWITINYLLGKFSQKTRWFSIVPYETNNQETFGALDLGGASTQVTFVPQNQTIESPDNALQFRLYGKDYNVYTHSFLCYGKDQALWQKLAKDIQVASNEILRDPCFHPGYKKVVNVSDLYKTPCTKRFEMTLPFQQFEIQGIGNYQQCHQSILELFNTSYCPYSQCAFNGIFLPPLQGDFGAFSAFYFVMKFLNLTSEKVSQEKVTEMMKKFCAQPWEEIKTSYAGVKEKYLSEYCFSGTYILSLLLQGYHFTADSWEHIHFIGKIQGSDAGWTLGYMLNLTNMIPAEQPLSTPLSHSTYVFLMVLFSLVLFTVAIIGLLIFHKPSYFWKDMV
Protocol: FIG. 2: Inhibition of NTPDases and NPPs by analogues 9-12 using as substrates ATP (100 μM) for NTPDase1,2,3,8 and pNP-TMP (100 μM) for NPP1,3 (Panel A); and ATP (100 μM) was used as the substrate for NPP1 (Panel B);
At least 2 independent experiments were performed. In panel A, the activity with 100 μM ATP was set as 100%, which was 287±31, 395±67, 278±22, 119±26 nmol of Pi·min−1·mg of protein−1 for human NTPDase1, -2, -3 and -8, respectively, and the activity with 100 μM pNP-TMP was set as 100% which was 67±5, 21±1 nmol of p-nitrophenol·min−1·mg of protein−1 for human NPP1 and NPP3, respectively. In panel B, the activity with 100 μM ATP was set as 100% which was 34±7 nmol of PPi·min−1·mg of protein−1 for NPP1.

human CD39 = molecular target: T2, human CD39 (Homo sapiens, UniProt P49961); test: Inhibition of human CD39, 0.5 μM PSB-170621A as substrate; type: biochemical; details: 0.5 μM PSB-170621A as a substrate; n = 3
T2 sequence (P49961 1-510): T1 sequence (P49961 1-510)

rat CD73 = molecular target: T3, rat CD73 (Rattus norvegicus, UniProt P21588); test: Inhibition of rat CD73, 5 μM [3H]AMP as substrate; type: biochemical; details: 5 μM [3H]AMP as a substrate; n = 3
T3 sequence (P21588 29-551): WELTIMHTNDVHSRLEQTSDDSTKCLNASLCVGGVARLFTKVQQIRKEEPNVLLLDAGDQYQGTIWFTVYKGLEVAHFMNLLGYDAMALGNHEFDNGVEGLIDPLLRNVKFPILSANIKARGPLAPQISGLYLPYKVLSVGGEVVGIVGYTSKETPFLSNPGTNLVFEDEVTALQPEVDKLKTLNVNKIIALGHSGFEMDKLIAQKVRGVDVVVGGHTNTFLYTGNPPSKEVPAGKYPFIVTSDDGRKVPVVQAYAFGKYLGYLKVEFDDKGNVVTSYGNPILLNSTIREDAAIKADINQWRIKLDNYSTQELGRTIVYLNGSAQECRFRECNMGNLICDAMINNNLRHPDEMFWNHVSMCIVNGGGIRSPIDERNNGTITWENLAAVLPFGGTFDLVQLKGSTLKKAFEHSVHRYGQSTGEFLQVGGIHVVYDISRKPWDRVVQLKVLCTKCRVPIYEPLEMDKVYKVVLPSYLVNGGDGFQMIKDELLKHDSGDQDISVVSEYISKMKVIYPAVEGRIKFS

NPP1 = molecular target: T4, NPP1 (Homo sapiens, UniProt P22413); test: Inhibition of human NPP1, 100 μM p-Nph-5′-TMP as substrate (Tables 5, 6)
T4 sequence (P22413 1-925): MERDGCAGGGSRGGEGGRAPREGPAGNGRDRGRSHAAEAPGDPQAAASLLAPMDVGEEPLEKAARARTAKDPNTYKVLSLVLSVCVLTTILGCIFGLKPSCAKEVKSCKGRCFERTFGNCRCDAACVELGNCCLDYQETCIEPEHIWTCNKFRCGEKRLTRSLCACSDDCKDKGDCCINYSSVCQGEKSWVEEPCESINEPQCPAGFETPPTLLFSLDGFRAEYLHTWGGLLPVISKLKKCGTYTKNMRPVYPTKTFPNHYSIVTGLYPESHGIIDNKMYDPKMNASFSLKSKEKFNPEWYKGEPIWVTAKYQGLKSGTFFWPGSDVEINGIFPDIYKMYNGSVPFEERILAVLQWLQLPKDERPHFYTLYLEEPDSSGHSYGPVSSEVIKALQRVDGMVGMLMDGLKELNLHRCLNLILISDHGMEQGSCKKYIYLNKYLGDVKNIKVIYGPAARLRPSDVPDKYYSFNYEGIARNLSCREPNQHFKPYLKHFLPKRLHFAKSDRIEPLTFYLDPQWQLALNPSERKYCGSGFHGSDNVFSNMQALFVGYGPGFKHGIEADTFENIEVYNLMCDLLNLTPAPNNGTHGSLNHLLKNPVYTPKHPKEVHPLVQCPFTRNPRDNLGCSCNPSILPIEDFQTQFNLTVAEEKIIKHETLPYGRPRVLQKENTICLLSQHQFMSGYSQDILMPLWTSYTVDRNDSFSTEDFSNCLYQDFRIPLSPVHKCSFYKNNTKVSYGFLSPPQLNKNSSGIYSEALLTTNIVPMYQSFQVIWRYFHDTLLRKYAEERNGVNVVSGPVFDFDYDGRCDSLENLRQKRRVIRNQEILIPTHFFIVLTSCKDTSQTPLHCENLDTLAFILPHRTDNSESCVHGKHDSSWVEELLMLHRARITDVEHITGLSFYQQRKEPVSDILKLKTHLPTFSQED

SMILES | inhibition of human NTPDase1 (NTPDase1) | % inhibition ± SEM, human CD39 (human CD39) | % inhibition ± SEM, rat CD73 (rat CD73) | Ki (NPP1) | inhibition at 10 µM (NPP1; read-out: % inhibition ± SEM at 10 μM, human NPP1)
O=c1ccn([C@@H]2O[C@H](COP(=S)(S)OP(=O)(O)OP(=O)(O)O)[C@@H](O)[C@H]2O)c(=O)[nH]1 (stereo partly shown) [Analogue 10] | no inhibition | – | – | – | –
O=c1ccn([C@@H]2O[C@H](COP(=S)(S)OP(=O)(O)CP(=O)(O)O)[C@@H](O)[C@H]2O)c(=O)[nH]1 (stereo partly shown) [Analogue 11] | negligible effects | – | – | – | –
O=c1ccn([C@@H]2O[C@H](COP(=S)(S)OP(=O)(O)OP(=O)(O)OP(=S)(S)OC[C@H]3O[C@@H](n4ccc(=O)[nH]c4=O)[C@H](O)[C@@H]3O)[C@@H](O)[C@H]2O)c(=O)[nH]1 (stereo partly shown) [Analogue 12] | selective to NPP1 | – | – | – | –
Nc1ncnc2c1ncn2COCCOP(=S)(S)OP(=O)(O)O (stereo not shown) [compound 106] | – | 14 ± 1% | n.i.d | 1810 nM | 67 ± 1%

Source: patent US20220220135A1 (BAR-ILAN UNIVERSITY, priority 2019, published 2022)
